# pIC50: −log10 of the molar value. The source made the active and inactive calls. No cut-off for these calls is given here.
# What was measured:
# [1] = target: Calcium/calmodulin-dependent protein kinase type 1 (Homo sapiens) (UniProt Q14012); assay: Inhibition of CaMK1a K1 labeling site in human Huh-7 cells at 1 uM by KiNativ Profiling analysis relative to control; format: cell-based
# [2] = target: TRAF2 and NCK-interacting protein kinase (Homo sapiens) (UniProt Q9UKE5); assay: Inhibition of ZC2 Lys2 labeling site in human A-375 cells at 5 uM by KiNativ Profiling analysis relative to control; format: cell-based
# [3] = target: Myosin light chain kinase (Homo sapiens) (UniProt Q32MK0); assay: Inhibition of MLCK (unknown origin) at 10 uM by Ambit Kinomescan binding assay
# [4] = target: Tyrosine-protein kinase Fer (Homo sapiens, UniProt P16591); assay: Inhibition of FER (unknown origin) ACT labeling site by KiNativ Profiling analysis
# [5] = target: Cyclin-dependent kinase 13 (Homo sapiens) (UniProt Q14004); assay: Inhibition of CHED K2 labeling site in human Huh-7 cells at 10 uM by KiNativ Profiling analysis relative to control; format: cell-based
# [6] = target: RPS6KA1/RPS6KA2/RPS6KA3 (Homo sapiens) (UniProt P51812+Q15349+Q15418); assay: Inhibition of RSK1/2/3 Domain 1 K2 labeling site harbouring DLKPENILLDEEGHIK in human Huh-7 cells at 1 uM by KiNativ Profiling analysis relative to control; format: cell-based
# [7] = target: Cyclin-dependent kinase 16 (Homo sapiens) (UniProt Q00536); assay: Inhibition of PFTAIRE1 Lys2 labeling site in human A-375 cells at 0.5 uM by KiNativ Profiling analysis relative to control; format: cell-based
# [8] = target: Serine/threonine-protein kinase pim-2 (Homo sapiens) (UniProt Q9P1W9); assay: Inhibition of PIM2 (unknown origin) at 10 uM by Ambit Kinomescan binding assay
# [9] = target: T1, Serine/threonine-protein kinase greatwall (Homo sapiens) (UniProt Q96GX5); assay: Inhibition of MASTL ATP labeling site in human Huh-7 cells at 1 uM by KiNativ Profiling analysis relative to control; format: cell-based
# T1 sequence (whole entry): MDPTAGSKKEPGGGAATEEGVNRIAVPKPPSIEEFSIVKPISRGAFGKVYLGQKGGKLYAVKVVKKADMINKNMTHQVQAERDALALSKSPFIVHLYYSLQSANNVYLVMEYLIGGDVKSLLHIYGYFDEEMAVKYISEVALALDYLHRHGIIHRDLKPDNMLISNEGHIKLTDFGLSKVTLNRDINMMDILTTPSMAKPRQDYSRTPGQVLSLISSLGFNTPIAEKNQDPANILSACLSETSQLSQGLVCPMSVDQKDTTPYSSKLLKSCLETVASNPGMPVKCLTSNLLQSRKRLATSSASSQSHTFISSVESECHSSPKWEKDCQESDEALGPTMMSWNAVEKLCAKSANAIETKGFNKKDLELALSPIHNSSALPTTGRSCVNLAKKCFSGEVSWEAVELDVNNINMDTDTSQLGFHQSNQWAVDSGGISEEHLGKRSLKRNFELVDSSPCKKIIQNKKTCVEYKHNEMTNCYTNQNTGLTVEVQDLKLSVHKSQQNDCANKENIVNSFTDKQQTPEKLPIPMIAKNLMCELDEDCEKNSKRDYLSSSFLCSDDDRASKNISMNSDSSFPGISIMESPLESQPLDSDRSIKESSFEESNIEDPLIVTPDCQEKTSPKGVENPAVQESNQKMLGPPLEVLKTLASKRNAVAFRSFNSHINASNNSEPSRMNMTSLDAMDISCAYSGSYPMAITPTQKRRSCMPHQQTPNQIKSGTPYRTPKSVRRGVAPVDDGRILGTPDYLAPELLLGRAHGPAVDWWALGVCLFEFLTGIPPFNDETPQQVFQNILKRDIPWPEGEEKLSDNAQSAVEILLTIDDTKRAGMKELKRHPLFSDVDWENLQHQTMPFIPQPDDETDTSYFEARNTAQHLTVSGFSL
# [10] = target: TRAF2 and NCK-interacting protein kinase (Homo sapiens) (UniProt Q9UKE5); assay: Inhibition of TNIK (unknown origin) at 1 uM by Ambit Kinomescan binding assay relative to control
# [11] = target: Bone morphogenetic protein receptor type-1A (Homo sapiens) (UniProt P36894); assay: Inhibition of BMPR1A (unknown origin) at 1 uM by Ambit Kinomescan binding assay relative to control; values are per cent of control
# [12] = target: T2, Eukaryotic elongation factor 2 kinase (Homo sapiens) (UniProt O00418); assay: Inhibition of eEF2K ATP labeling site in human Huh-7 cell lysate at 1 uM by KiNativ Profiling analysis relative to control; format: subcellular
# T2 sequence (whole entry): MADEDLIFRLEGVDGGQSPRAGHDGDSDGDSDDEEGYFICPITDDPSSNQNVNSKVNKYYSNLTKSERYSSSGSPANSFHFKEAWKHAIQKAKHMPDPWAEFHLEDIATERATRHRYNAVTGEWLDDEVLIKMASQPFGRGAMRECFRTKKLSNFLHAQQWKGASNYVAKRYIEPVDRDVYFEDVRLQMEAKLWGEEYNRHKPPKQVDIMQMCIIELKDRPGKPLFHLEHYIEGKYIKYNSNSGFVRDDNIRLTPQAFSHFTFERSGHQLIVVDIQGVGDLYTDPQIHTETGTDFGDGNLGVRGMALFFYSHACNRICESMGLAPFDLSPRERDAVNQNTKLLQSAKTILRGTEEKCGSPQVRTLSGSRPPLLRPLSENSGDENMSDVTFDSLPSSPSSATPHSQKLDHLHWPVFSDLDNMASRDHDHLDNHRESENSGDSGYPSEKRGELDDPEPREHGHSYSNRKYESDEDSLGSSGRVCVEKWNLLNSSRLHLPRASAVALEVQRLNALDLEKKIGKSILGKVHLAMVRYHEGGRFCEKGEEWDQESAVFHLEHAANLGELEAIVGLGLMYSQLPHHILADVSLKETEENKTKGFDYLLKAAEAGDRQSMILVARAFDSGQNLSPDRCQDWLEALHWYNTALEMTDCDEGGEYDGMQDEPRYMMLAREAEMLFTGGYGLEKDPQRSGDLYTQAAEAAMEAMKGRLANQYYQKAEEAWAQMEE
# [13] = target: Calcium/calmodulin-dependent protein kinase type II subunit delta (Homo sapiens) (UniProt Q13557); assay: Inhibition of CaMK2d Lys1 labeling site harbouring IPTGQEYAAKIINTK in human Huh-7 cells at 1 uM by KiNativ Profiling analysis relative to control; format: cell-based
# [14] = target: DNA-PK/Ku70/Ku85 (Homo sapiens) (UniProt P78527+P12956+P13010); assay: Inhibition of DNAPK ATP labeling site harbouring KGGSWIQEINVAEK in human Huh-7 cells at 1 uM by KiNativ Profiling analysis relative to control; format: cell-based
# [15] = target: Myosin light chain kinase, smooth muscle (Homo sapiens) (UniProt Q15746); assay: Inhibition of smMLCK Lys2 labeling site in human Huh-7 cells at 1 uM by KiNativ Profiling analysis relative to control; format: cell-based
# [16] = target: Phosphatidylinositol 3-kinase catalytic subunit type 3 (Homo sapiens) (UniProt Q8NEB9); assay: Inhibition of PIK3C3 ATP labeling site in human Huh-7 cells at 1 uM by KiNativ Profiling analysis relative to control; format: cell-based
# Chain of TRAF2 and NCK-interacting protein kinase (Homo sapiens) (Q9UKE5 whole entry, looked up): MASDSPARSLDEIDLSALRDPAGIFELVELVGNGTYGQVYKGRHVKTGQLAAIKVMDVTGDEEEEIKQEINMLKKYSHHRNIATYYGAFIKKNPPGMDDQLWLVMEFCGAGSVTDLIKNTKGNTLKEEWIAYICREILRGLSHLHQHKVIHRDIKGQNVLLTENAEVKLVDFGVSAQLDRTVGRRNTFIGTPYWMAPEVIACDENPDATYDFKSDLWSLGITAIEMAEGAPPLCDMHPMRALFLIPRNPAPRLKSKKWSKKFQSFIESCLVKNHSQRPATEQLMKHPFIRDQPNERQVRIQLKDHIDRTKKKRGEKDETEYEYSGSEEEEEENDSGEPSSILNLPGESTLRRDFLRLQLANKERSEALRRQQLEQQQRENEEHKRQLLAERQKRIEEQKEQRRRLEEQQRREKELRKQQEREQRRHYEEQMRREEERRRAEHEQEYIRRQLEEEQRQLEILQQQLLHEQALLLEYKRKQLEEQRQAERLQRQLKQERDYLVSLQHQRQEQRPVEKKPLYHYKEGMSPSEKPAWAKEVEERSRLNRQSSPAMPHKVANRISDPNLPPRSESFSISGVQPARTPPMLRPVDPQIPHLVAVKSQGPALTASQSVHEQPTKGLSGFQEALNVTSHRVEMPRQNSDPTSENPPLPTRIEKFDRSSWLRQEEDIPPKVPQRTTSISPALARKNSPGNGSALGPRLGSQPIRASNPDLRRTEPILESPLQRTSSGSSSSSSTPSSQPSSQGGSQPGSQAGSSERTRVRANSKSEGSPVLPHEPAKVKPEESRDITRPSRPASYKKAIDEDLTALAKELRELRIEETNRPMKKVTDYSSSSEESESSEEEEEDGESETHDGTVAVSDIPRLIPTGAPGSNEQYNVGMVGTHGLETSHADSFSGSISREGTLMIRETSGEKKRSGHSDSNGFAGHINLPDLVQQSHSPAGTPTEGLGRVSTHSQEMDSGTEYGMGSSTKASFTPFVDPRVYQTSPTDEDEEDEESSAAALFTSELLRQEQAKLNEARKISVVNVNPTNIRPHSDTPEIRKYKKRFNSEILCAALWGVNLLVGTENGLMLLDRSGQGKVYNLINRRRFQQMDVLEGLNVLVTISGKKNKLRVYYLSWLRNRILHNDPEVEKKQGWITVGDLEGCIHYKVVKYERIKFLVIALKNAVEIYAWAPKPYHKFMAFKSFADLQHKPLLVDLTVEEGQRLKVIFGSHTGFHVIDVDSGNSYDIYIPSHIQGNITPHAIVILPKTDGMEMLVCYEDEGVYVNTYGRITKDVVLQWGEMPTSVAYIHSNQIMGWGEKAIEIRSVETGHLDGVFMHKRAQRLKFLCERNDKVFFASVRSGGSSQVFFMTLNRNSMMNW
# Chain of Cyclin-dependent kinase 13 (Homo sapiens) (Q14004 whole entry, looked up): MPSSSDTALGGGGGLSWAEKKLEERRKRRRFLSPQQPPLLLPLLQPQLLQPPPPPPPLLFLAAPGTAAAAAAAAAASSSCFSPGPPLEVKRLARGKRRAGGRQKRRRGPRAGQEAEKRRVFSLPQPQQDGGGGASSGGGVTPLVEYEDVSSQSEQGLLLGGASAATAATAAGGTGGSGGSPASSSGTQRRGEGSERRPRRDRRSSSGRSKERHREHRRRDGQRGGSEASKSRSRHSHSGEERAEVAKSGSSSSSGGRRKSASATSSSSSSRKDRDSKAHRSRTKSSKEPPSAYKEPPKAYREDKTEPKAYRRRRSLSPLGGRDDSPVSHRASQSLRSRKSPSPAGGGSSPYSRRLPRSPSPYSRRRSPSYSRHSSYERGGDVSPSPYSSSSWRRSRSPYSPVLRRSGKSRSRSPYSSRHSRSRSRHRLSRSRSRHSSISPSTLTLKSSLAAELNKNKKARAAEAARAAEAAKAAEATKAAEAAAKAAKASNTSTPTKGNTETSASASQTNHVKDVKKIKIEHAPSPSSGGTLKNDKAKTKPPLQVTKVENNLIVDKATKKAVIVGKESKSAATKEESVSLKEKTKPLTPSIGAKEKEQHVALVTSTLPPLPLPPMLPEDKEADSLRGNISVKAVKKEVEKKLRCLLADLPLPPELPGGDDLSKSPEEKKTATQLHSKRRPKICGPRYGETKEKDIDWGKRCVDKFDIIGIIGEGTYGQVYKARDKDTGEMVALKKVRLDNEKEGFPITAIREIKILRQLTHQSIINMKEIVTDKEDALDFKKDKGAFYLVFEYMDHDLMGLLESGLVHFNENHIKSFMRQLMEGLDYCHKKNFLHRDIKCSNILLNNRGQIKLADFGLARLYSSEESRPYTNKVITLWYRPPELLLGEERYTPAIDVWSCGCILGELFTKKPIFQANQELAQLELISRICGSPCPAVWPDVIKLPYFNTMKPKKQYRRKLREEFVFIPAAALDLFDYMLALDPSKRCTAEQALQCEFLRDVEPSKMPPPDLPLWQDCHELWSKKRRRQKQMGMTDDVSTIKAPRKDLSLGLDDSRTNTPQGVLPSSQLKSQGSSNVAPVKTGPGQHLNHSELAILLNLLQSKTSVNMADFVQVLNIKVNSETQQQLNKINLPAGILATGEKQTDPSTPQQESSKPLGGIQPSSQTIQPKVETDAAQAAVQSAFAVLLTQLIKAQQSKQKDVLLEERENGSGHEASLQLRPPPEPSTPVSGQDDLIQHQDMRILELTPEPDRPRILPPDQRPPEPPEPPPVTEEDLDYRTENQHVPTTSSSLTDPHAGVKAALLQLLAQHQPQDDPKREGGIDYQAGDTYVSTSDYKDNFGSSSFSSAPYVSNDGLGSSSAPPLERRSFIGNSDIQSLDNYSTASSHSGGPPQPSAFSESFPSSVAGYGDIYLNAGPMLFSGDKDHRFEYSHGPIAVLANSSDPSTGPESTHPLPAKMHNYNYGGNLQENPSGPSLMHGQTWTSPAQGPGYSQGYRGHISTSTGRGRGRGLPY
# Chain of Calcium/calmodulin-dependent protein kinase type 1 (Homo sapiens) (Q14012 whole entry, looked up): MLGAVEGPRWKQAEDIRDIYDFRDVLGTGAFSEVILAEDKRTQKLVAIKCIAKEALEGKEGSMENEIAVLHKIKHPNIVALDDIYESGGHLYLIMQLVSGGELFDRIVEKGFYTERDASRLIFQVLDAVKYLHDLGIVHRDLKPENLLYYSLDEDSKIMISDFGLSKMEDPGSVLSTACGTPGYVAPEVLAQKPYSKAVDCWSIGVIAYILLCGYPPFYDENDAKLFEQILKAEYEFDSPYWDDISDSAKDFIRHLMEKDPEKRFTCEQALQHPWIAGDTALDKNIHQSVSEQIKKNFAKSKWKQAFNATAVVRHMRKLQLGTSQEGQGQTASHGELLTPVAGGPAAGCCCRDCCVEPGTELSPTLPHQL
# Chain of Tyrosine-protein kinase Fer (P16591 whole entry): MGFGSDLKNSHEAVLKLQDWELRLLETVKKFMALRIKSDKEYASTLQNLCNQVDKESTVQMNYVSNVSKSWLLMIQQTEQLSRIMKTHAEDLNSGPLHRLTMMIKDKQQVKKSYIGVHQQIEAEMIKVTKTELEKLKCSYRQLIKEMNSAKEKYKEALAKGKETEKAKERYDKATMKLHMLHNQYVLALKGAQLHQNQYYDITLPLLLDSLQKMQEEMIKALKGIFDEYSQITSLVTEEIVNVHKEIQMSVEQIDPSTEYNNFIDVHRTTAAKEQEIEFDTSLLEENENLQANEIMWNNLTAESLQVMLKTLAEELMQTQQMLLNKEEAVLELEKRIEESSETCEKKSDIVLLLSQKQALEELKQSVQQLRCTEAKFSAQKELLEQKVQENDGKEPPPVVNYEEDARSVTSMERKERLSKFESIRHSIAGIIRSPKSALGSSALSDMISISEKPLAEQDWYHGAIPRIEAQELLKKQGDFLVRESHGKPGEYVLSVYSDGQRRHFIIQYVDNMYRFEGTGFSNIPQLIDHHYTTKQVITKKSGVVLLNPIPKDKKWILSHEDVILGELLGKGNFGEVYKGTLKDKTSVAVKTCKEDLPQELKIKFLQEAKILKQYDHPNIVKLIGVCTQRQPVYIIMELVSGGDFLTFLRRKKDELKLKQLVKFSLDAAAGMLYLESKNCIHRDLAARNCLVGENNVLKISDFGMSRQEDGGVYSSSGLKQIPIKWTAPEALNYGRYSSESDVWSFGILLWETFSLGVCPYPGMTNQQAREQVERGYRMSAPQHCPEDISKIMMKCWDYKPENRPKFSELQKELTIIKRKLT
# Chain of Serine/threonine-protein kinase pim-2 (Homo sapiens) (Q9P1W9 whole entry, looked up): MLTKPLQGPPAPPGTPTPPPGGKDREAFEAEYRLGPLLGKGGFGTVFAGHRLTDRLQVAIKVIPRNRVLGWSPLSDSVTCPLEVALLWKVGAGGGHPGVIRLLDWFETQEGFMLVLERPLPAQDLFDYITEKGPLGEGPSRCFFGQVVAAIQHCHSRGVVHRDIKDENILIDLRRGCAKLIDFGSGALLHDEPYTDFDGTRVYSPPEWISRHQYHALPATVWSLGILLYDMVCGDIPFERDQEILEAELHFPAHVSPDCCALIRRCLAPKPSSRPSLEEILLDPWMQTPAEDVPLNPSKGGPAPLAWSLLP
# Chain of Bone morphogenetic protein receptor type-1A (Homo sapiens) (P36894 whole entry): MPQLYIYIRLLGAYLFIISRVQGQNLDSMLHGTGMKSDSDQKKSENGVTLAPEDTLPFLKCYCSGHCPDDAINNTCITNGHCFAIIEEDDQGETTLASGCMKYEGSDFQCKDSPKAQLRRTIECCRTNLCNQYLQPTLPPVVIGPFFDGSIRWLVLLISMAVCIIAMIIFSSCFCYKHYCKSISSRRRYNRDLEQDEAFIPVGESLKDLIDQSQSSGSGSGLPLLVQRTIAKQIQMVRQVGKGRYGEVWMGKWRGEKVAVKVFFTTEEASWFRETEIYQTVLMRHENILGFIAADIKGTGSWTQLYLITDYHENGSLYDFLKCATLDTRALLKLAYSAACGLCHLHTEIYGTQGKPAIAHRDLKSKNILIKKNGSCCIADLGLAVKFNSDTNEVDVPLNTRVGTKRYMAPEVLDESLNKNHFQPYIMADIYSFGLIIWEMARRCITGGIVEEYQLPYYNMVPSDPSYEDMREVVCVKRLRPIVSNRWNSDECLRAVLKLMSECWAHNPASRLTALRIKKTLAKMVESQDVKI
smiles,measurement,setting,value
CCN1CCN(Cc2ccc(NC(=O)c3ccc(C)c(Oc4ccnc5[nH]ccc45)c3)cc2C(F)(F)F)CC1,inhibition,[1],19%
same,inhibition,[2],92.7%
same,inhibition,[3],inactive
same,pIC50,[4],7.08
same,inhibition,[5],inactive
same,inhibition,[6],5%
same,inhibition,[7],33.6%
same,inhibition,[8],inactive
same,inhibition,[9],3.6%
CCN1CCN(Cc2ccc(NC(=O)c3ccc(C)c(/C=C/c4cnc5[nH]ccc5c4OC)c3)cc2C(F)(F)F)CC1,inhibition,[10],14%
same,residual activity,[11],100%
CNc1cc(Oc2cc(C(=O)Nc3cc(N4CCN(C)CC4)cc(C(F)(F)F)c3)ccc2C)ncn1,inhibition,[12],-3.5%
same,inhibition,[13],9.1%
same,inhibition,[14],71.1%
same,inhibition,[15],34.3%
same,inhibition,[16],8.9%

# Reference: ChEMBL document CHEMBL5696442, “Discovery of type II inhibitors of TGFβ-activated kinase 1 (TAK1) and mitogen-activated protein kinase kinase kinase kinase 2 (MAP4K2)” (J Med Chem, 2015)
